Results: patent publication US10287267B2, “Isoquinolin-3-yl carboxamides and preparation and use thereof” (Samumed, LLC, priority 2016, dated 2019)

Experiments:
[1] = test system: Wnt pathway (Sp5-Luc reporter, TCF/LEF binding sites) in SW480 colon carcinoma cells; test: Screening assay for Wnt activity: Sp5-Luc reporter gene assay; assay type: cell-based, human; conditions: Homo sapiens; for EC50: Sp5-Luc reporter, SW480 cells, 36 to 48 hours; for inhibition at 10 µM: SW480, read-out: percent inhibition at 10 μM;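 as to all read-outs here: firefly luciferase luminescence read in stably transduced SW480 cells carrying the Sp5 promoter reporter with eight TCF/LEF sites, compounds given in 0.1% DMSO final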
Method: The screening assay for Wnt activity is described as follows.
Following incubation, 15 μl of BriteLite Plus luminescence reagent (Perkin Elmer) was added to each well of the 384-well assay plates. The plates were placed on an orbital shaker for 2 min and then luminescence was quantified using the Envision (Perkin Elmer) plate reader.

[2] = molecular target: recombinant DYRK1A kinase (Homo sapiens (Human), UniProt Q13627); test: DYRK1A kinase assay (Ser/Thr 18 peptide Z-lyte FRET); assay type: biochemical; conditions: 30 μM ATP, 1 h room temperature;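 also: Read-out is the coumarin to fluorescein emission ratio, referenced to unphosphorylated (0%) and phosphorylated (100%) Ser/Thr 18 peptide controls, values from dose-response curves by non-linear regression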
[3] = molecular target: recombinant GSK3β kinase (Homo sapiens (Human), UniProt P49841); test: GSK3β kinase assay (Ser/Thr 09 peptide Z-lyte FRET); assay type: biochemical; conditions: 46 μM ATP, 1 h room temperature;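 also: kinase activity read as coumarin to fluorescein emission ratio, 11-point threefold dilutions from 10 µM to 0.0003 µM in duplicate, unphosphorylated and phosphorylated peptide as 0% and 100% controls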
recombinant GSK3β kinase, sequence (P49841 whole entry): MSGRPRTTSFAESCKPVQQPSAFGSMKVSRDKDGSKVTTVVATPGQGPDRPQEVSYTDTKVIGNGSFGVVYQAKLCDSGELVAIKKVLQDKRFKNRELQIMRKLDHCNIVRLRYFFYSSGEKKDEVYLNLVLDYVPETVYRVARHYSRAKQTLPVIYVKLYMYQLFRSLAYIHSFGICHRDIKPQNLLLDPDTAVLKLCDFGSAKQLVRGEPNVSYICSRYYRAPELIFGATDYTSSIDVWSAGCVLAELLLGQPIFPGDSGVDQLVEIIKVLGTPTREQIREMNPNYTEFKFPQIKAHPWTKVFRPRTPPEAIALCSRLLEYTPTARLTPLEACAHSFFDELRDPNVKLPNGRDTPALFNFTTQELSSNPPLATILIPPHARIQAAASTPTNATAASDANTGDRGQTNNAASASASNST

[4] = test system: Tau phosphorylation at Ser396 (pSer396); test: Tau phosphorylation assay (pSer396 ELISA / western blot) in SH-SY5Y cells; assay type: cell-based, human; conditions: Homo sapiens; SH-SY5Y cells, overnight (16-18 h) exposure; read-out: pSer396 Tau EC50;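 also: EC50 for reduction of Tau pSer396 in lysed cells, measured by colorimetric ELISA or chemiluminescent western blot, both using the same pSer396 antibody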
[5] = test system: SW480 colon carcinoma cells; test: Cell viability assay (CellTiter-Glo); assay type: cell-based, human; conditions: Homo sapiens; for EC50: 96 h, SW480 cells, CellTiter-Glo, four days incubation; for inhibition at 10 µM: SW480, read-out: percent inhibition at 10 μM
[6] = test system: α-smooth muscle actin (αSMA) positive LL29 cells; test: Inhibition of fibrotic process: αSMA in TGF-β1 treated primary human fibroblasts from IPF patients; assay type: cell-based; conditions: Homo sapiens, Fibroblast; for EC50: 96 h, Table 8, LL29 fibroblasts from IPF patients, TGF-β1 20 ng/mL, 4 days, dose-response 10 μM to 0.94 nM; for inhibition at 10 µM: read-out: percent value in parentheses beside EC50 >10 μM;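 as to all read-outs here: controls were TGF-β1 stimulated wells with DMSO vehicle (positive) and cells given DMSO alone (negative), cultured in F12 medium with 1% fetal bovine serum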
[7] = test system: IL-6; test: IL-6 inhibition in LPS-stimulated human peripheral blood mononuclear cells (HTRF); assay type: cell-based; conditions: Homo sapiens, PBMC; for EC50: Table 9, huPBMCs, LPS 50 ng/mL, 22 hours, dose-response starting from 10 μM; for inhibition at 10 µM: read-out: percent value in parentheses beside EC50 >10 μM;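 as to all read-outs here: IL-6 detected by HTRF with an XL665- and Cryptate-labelled anti-IL-6 antibody pair, samples run in duplicate, EC50 obtained from a four-parameter Levenberg-Marquardt curve fit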
Method: After 22 hour incubation, a mixture of anti-IL6 XL665 and anti-IL-6 Cryptate diluted in reconstitution buffer (Catalog #62IL6PEC, Cisbio Inc., Bedford, Mass.) was added to each well. […] All samples were processed in duplicate. […] EC50 was determined using software generated by Dotmatics Limited (Windhill Bishops Stortford Herts, UK) using the Levenberg-Marquardt 4 parameter fitting procedure with finite different gradients.

Compound	EC50 [1]	EC50 [2]	EC50 [3]	EC50 [4]	EC50 [5]	EC50 [6]	EC50 [7]	inhibition at 10 µM [5]	inhibition at 10 µM [1]	inhibition at 10 µM [7]	inhibition at 10 µM [6]
Cn1cc(-c2ccc3cnc(NC(=O)C4CCN(Cc5ncccn5)CC4)cc3c2)cn1 [Compound 1003, N-(6-(1-Methyl-1H-pyrazol-4-yl)isoquinolin-3-yl)-1-(pyrimidin-2-ylmethyl)piperidine-4-carboxamide]	1320 nM	2.1 nM	43 nM	732 nM	804 nM	49 nM	1150 nM	–	–	–	–
Cn1cc(-c2ccc3cnc(NC(=O)CN4CCCCC4)cc3c2)nn1 [Compound 276, N-(6-(1-methyl-1H-1,2,3-triazol-4-yl)isoquinolin-3-yl)-2-(piperidin-1-yl) acetamide]	5180 nM	5.1 nM	6 nM	150 nM	> 10000 nM	336 nM	2920 nM	29.6%	–	–	–
O=C(Nc1cc2cc(-c3cnn4c3CN(CCF)CC4)ccc2cn1)C1CCC(F)(F)CC1 [Compound 283, 4,4-Difluoro-N-(6-(5-(2-fluoroethyl)-4,5,6,7-tetrahydropyrazolo[1,5-a]pyrazin-3-yl)isoquinolin-3-yl)cyclohexane-1-carboxamide]	2490 nM	7 nM	62 nM	411 nM	3120 nM	782 nM	5450 nM	–	–	–	–
Cn1cc(-c2ccc3cnc(NC(=O)[C@@H]4CCCNC4)cc3c2)nn1 [Compound 481, (R)—N-(6-(1-Methyl-1H-1,2,3-triazol-4-yl)isoquinolin-3-yl)piperidine-3-carboxamide]	1540 nM	4.3 nM	4 nM	662 nM	1370 nM	1020 nM	1140 nM	–	–	–	–
CN1CCN(CC(=O)Nc2cc3cc(-c4cnn(C)c4)c(F)cc3cn2)CC1 [Compound 372, N-(7-Fluoro-6-(1-methyl-1H-pyrazol-4-yl)isoquinolin-3-yl)-2-(4-methylpiperazin-1-yl)acetamide]	3400 nM	10.6 nM	79 nM	1100 nM	8820 nM	504 nM	3660 nM	–	–	–	–
[2H]C1([2H])CCC([2H])([2H])N1CC(=O)Nc1cc2cc(-c3cnn(C)c3)ccc2cn1 [Compound 315, N-(6-(1-Methyl-1H-pyrazol-4-yl)isoquinolin-3-yl)-2-(pyrrolidin-1-yl-2,2,5,5-d4)acetamide]	1590 nM	12.3 nM	44 nM	346 nM	1250 nM	1820 nM	819 nM	–	–	–	–
Cn1cc(-c2ccc3cnc(NC(=O)C4CCOCC4)cc3c2)cn1 [Compound 114, N-(6-(1-Methyl-1H-pyrazol-4-yl)isoquinolin-3-yl)tetrahydro-2H-pyran-4-carboxamide]	835 nM	1.9 nM	32 nM	286 nM	3890 nM	735 nM	1140 nM	–	–	–	–
CCN(CC)CC(=O)Nc1cc2cc(-c3cnn(C)c3CN3CCCCC3)ccc2cn1 [Compound 785, 2-(Diethylamino)-N-(6-(1-methyl-5-(piperidin-1-ylmethyl)-1H-pyrazol-4-yl)isoquinolin-3-yl)acetamide]	2840 nM	10.1 nM	44 nM	485 nM	2860 nM	1170 nM	9150 nM	–	–	–	–
CCn1cc(-c2ccc3cnc(NC(=O)CN4CCCC4)cc3c2)cn1 [Compound 285, N-(6-(1-Ethyl-1H-pyrazol-4-yl)isoquinolin-3-yl)-2-(pyrrolidin-1-yl) acetamide]	3400 nM	44.2 nM	149 nM	1580 nM	7020 nM	1470 nM	2270 nM	–	–	–	–
COCCN1CCC(C(=O)Nc2cc3cc(-c4cncn4C)ccc3cn2)CC1 [Compound 547, 1-(2-Methoxyethyl)-N-(6-(1-methyl-1H-imidazol-5-yl)isoquinolin-3-yl) piperidine-4-carboxamide]	2230 nM	3.4 nM	104 nM	379 nM	931 nM	160 nM	1120 nM	–	–	–	–
O=C(Nc1cc2cc(-c3cnc4n3CCNC4)ccc2cn1)C1CCN(C(=O)c2ccccc2)CC1 [Compound 991, 1-Benzoyl-N-(6-(5,6,7,8-tetrahydroimidazo[1,2-a]pyrazin-3-yl)isoquinolin-3-yl)piperidine-4-carboxamide]	1700 nM	3.3 nM	29 nM	10000 nM	3960 nM	2680 nM	3240 nM	–	–	–	–
Cn1ncc(-c2ccc3cnc(NC(=O)C4CCC(F)(F)CC4)cc3c2)c1CN1CCCC1 [Compound 299, 4,4-Difluoro-N-(6-(1-methyl-5-(pyrrolidin-1-ylmethyl)-1H-pyrazol-4-yl)isoquinolin-3-yl)cyclohexane-1-carboxamide]	1530 nM	6.7 nM	44 nM	573 nM	2240 nM	1210 nM	4530 nM	–	–	–	–
CC1CCN(CC(=O)Nc2cc3cc(-c4cnn(C)c4CN4CCCCC4)ccc3cn2)CC1 [Compound 851, N-(6-(1-Methyl-5-(piperidin-1-ylmethyl)-1H-pyrazol-4-yl)isoquinolin-3-yl)-2-(4-methylpiperidin-1-yl)acetamide]	> 10000 nM	5010 nM	5000 nM	350 nM	> 10000 nM	692 nM	> 10000 nM	30.4%	6.4%	2.9%	–
CC(C)CN1CCC(F)(C(=O)Nc2cc3cc(-c4cnn(C)c4)ccc3cn2)CC1 [Compound 96, 4-Fluoro-1-isobutyl-N-(6-(1-methyl-1H-pyrazol-4-yl)isoquinolin-3-yl) piperidine-4-carboxamide]	> 10000 nM	7.1 nM	350 nM	2000 nM	> 10000 nM	677 nM	> 10000 nM	–	–	5.8%	–
Cn1cc(-c2ccc3cnc(NC(=O)C4CCN(C(=O)CN5CCCC5)CC4)cc3c2)nn1 [Compound 475, N-(6-(1-Methyl-1H-1,2,3-triazol-4-yl)isoquinolin-3-yl)-1-(2-(pyrrolidin-1-yl)acetyl)piperidine-4-carboxamide]	701 nM	3.2 nM	23 nM	1800 nM	1060 nM	140 nM	2560 nM	–	–	–	–
CC(C)OCC(=O)Nc1cc2cc(-c3cncn3C)ccc2cn1 [Compound 1008, 2-Isopropoxy-N-(6-(1-methyl-1H-imidazol-5-yl)isoquinolin-3-yl)acetamide]	3350 nM	7.5 nM	91 nM	643 nM	> 10000 nM	318 nM	7590 nM	37.2%	–	–	–
C[C@@H]1CN(CC(=O)Nc2cc3cc(-c4cnn(C)c4)ccc3cn2)C[C@H](C)O1 [Compound 344, 2-((2R,6S)-2,6-Dimethylmorpholino)-N-(6-(1-methyl-1H-pyrazol-4-yl)isoquinolin-3-yl)acetamide]	5470 nM	10.5 nM	175 nM	3500 nM	7680 nM	> 10000 nM	9130 nM	–	–	–	24.3%
C[C@@H]1CCCN1CC(=O)Nc1cc2cc(-c3cnn(C)c3)ccc2cn1 [Compound 289, (R)—N-(6-(1-Methyl-1H-pyrazol-4-yl)isoquinolin-3-yl)-2-(2-methylpyrrolidin-1-yl)acetamide]	2650 nM	13.7 nM	62 nM	185 nM	7760 nM	> 10000 nM	3200 nM	–	–	–	14.3%
Cn1cc(-c2ccc3cnc(NC(=O)[C@H]4CCCNC4)cc3c2)cn1 [Compound 110, (S)—N-(6-(1-Methyl-1H-pyrazol-4-yl)isoquinolin-3-yl)piperidine-3-carboxamide]	1100 nM	4.7 nM	34 nM	636 nM	1050 nM	286 nM	484 nM	–	–	–	–
CC(C)CN1CCC(F)(C(=O)Nc2cc3cc(-n4ccnn4)ccc3cn2)CC1 [Compound 1074, N-(6-(1H-1,2,3-triazol-1-yl)isoquinolin-3-yl)-4-fluoro-1-isobutylpiperidine-4-carboxamide]	> 10000 nM	6.9 nM	278 nM	1300 nM	> 10000 nM	> 10000 nM	> 10000 nM	25%	19.7%	5.6%	–
Cc1ncc(-c2ccc3cnc(NC(=O)C4CC(F)(F)C4)cc3c2)n1C [Compound 268, N-(6-(1,2-Dimethyl-1H-imidazol-5-yl)isoquinolin-3-yl)-3,3-difluorocyclobutanecarboxamide]	2070 nM	5.8 nM	17 nM	478 nM	2770 nM	73 nM	8170 nM	–	–	–	–
